Data set [1] deals with T1, PDE10A (human) (Homo sapiens, UniProt Q9Y233).
T1 construct: purchased BPS Bioscience
In words: Measurement of PDE activity (HTRF cAMP kit), human PDE10A. The class given is biochemical. As to conditions: PDE enzymatic reaction, substrate 20 nM for PDE10, 60 minutes at 29 C. Put shortly:
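HTRF detection of cAMP left after hydrolysis, expressed as percent of uninhibited control to derive IC50. Reaction: serially diluted inhibitor mixed with recombinant enzyme, started with 20 nM cAMP, 60 min at 29 °C in Tris-HCl pH 7.5 buffer containing MgCl2 and BSA.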
For orientation: Time-resolved FRET reads energy transfer from a long-lived donor to a nearby acceptor.

Data set [2] is described as follows: Determination of the microsomal half-life, rat liver microsomes. As to conditions: rat, liver microsomes, pH 7.4. Background: Microsomes from liver hold many membrane-bound enzymes, among them those of drug oxidation.
Data set [3] is described as follows: Determination of the microsomal half-life, human liver microsomes. As to conditions: human, liver microsomes, pH 7.4.
Description: The test substances were incubated in a concentration of 0.5 μM as follows:
0.5 μM test substance are preincubated together with liver microsomes from different species (from rat, human or other species) (0.25 mg of microsomal protein/10 in 0.05 M potassium phosphate buffer of pH 7.4 in microtiter plates at 37° C. for 5 min. The reaction is started by adding NADPH (1 mg/mL). After 0, 5, 10, 15, 20 and 30 min., 50 μl aliquots are removed, and the reaction is immediately stopped and cooled with the same volume of acetonitrile. The samples are frozen until analyzed. The remaining concentration of undegraded test substance is determined by MSMS. The half-life (T½) is determined from the gradient of the signal of test substance/unit time plot, it being possible to calculate the half-life of the test substance, assuming first order kinetics, from the decrease in the concentration of the compound with time. The microsomal clearance (mCl) is calculated from mCl=ln 2/T½/(content of microsomal protein in mg/ml)×1000 [ml/min/mg]

Structures are written as SMILES. Where a name gives a salt, the structure may show the parent alone. A value given as a limit tells only on which side of the number the result lay.

T1 sequence (Q9Y233 whole entry): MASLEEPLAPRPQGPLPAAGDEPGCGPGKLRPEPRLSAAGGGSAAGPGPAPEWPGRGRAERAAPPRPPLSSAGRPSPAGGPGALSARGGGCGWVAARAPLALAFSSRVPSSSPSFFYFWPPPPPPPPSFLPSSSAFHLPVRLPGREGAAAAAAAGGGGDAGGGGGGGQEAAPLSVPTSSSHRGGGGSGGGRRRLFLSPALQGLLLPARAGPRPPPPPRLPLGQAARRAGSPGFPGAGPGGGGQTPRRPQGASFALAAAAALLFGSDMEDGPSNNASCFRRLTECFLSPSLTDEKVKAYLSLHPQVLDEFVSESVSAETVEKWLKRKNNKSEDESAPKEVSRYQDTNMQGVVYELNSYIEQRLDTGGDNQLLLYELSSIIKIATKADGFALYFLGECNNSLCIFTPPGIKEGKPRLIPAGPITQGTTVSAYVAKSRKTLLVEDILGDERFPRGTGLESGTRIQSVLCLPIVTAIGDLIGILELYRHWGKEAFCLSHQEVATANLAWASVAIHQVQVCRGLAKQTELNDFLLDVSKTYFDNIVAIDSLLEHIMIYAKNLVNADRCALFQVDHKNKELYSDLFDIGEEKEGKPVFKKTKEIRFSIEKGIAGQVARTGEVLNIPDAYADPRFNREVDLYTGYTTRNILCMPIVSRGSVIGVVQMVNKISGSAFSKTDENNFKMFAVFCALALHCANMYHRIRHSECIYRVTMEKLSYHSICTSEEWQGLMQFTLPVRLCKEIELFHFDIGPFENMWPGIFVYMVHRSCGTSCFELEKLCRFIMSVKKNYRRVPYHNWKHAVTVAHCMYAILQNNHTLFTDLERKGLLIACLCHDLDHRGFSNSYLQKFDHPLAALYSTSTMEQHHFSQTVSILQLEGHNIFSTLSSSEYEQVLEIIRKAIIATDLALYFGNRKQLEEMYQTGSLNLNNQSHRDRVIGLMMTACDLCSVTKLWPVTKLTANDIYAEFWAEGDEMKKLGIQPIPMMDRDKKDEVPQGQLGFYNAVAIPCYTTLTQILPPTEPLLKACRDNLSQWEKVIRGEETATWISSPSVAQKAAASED

Regarding `O=C1c2c(N3CC4COCC4C3)ccnc2CN1CCc1nc2ccccc2s1` (stereo not drawn) [compound 426, 4-(1,3,3a,4,6,6a-Hexahydrofuro[3,4-c]pyrrol-5-yl)-6-[2-(1,3-benzothiazol-2-yl)ethyl]-7H-pyrrolo[3,4-b]pyridin-5-one], in data set [1], the half-maximal inhibitory concentration (IC50) was under 100 nM. Also, the microsomal CLint at 0.5 μM in data set [2] is under 100 µL/min/mg; in data set [3], 100 to 220 µL/min/mg.

In data set [1], `O=C1c2c(cccc2-c2ccc3[nH]c(=O)[nH]c3c2)CN1CCc1cn2ccccc2n1` [Example 245, 5-[2-(2-Imidazo[1,2-a]pyridin-2-yl-ethyl)-3-oxo-2,3-dihydro-1H-isoindol-4-yl]-1,3-dihydro-benzoimidazol-2-one] registered an IC50 of under 100 nM. Moreover, the microsomal CLint at 0.5 μM in data set [2] and in data set [3] was under 100 µL/min/mg each time.

For the compound `COc1ccc(-c2cncnc2)c2c1CN(CCc1ccc3ccccc3n1)C2=O` [Example 183, 4-Methoxy-7-pyrimidin-5-yl-2-(2-quinolin-2-yl-ethyl)-2,3-dihydro-isoindol-1-one], the IC50 in data set [1] was under 100 nM. The microsomal CLint at 0.5 μM in data set [2] and in data set [3] was 100 to 220 µL/min/mg throughout.

With `O=C1c2c(-c3cn[nH]c3)ccc(F)c2CN1CCc1cn2ccccc2n1` [Example 383, 4-Fluoro-2-(2-imidazo[1,2-a]pyridin-2-yl-ethyl)-7-(1H-pyrazol-4-yl)-2,3-dihydro-isoindol-1-one], the half-maximal inhibitory concentration (IC50) in data set [1] is under 100 nM. In addition, the microsomal CLint at 0.5 μM in data set [2] and in data set [3] was under 100 µL/min/mg each time.

Take `O=C1c2c(N3CCOCC3)ccnc2CN1CCc1cnc2ccccc2n1` [compound 495, 4-Morpholino-6-(2-quinoxalin-2-ylethyl)-7H-pyrrolo[3,4-b]pyridin-5-one trifluoroacetate]: the IC50 in data set [1] was under 100 nM. Besides, the microsomal CLint at 0.5 μM in data set [2] and in data set [3] was under 100 µL/min/mg throughout.

`O=C1c2c(N3CCOCC3)ccnc2CN1CCc1nc2ccc(F)cc2s1` [compound 405, 6-[2-(6-Fluoro-1,3-benzothiazol-2-yl)ethyl]-4-morpholino-7H-pyrrolo[3,4-b]pyridin-5-one]: the IC50 in data set [1] was under 100 nM. Also, the microsomal CLint at 0.5 μM in data set [2] was 100 to 220 µL/min/mg; in data set [3], over 220 µL/min/mg.

Turning to `COc1ccc(-c2ccnn2C)c2c1CN(CCc1cn3ccccc3n1)C2=O` [Example 373, 2-(2-Imidazo[1,2-a]pyridin-2-yl-ethyl)-4-methoxy-7-(2-methyl-2H-pyrazol-3-yl)-2,3-dihydro-isoindol-1-one], in data set [1], the IC50 was under 100 nM. Besides, the intrinsic metabolic clearance (microsomal CLint) at 0.5 μM in data set [2] and in data set [3] was under 100 µL/min/mg throughout.

Consider `O=C1c2c(N3CCNCC3)ccnc2CN1CCc1ccc2ccccc2n1` [Example 163, 4-piperazin-1-yl-6-(2-quinolin-2-yl-ethyl)-6,7-dihydro-pyrrolo[3,4-b]pyridin-5-one], for which the IC50 in data set [1] is under 100 nM. Also, the microsomal CLint at 0.5 μM in data set [2] and in data set [3] was under 100 µL/min/mg in each case.

`Cc1ccc(-c2cccc3c2C(=O)N(CCc2ccc4ccccc4n2)C3)cn1` [Example 91, 7-(6-Methyl-pyridin-3-yl)-2-(2-quinolin-2-yl-ethyl)-2,3-dihydro-isoindol-1-one] registered an IC50 in data set [1] of under 100 nM. In addition, the microsomal CLint at 0.5 μM in data set [2] was under 100 µL/min/mg; in data set [3] it was 100 to 220 µL/min/mg.

`COc1ccc(N2CCOCC2)c2c1CN(CCc1cn3ccccc3n1)C2=O` [Example 264, 2-(2-Imidazo[1,2-a]pyridin-2-yl-ethyl)-4-methoxy-7-morpholin-4-yl-2,3-dihydro-isoindol-1-one trifluoroacetate] had a half-inhibitory concentration (IC50) in data set [1] of under 100 nM. Also, the microsomal CLint at 0.5 μM in data set [2] and in data set [3] was under 100 µL/min/mg in each case.

Compound `Cc1ncccc1COc1cccc2c1C(=O)N(CCc1ccc3ccccc3n1)C2` [Example 179, 7-(2-Methyl-pyridin-3-ylmethoxy)-2-(2-quinolin-2-yl-ethyl)-2,3-dihydro-isoindol-1-one] returned an IC50 in data set [1] of under 100 nM. The microsomal CLint at 0.5 μM in data set [2] was 100 to 220 µL/min/mg; in data set [3] it was over 220 µL/min/mg.

What is called IC50 is the midpoint of a concentration-inhibition curve. Higher therefore signals a need for much substance. The term microsomal CLint denotes a measure of how fast metabolising enzymes remove a compound, apart from limits set by blood flow.

The values above are taken from patent US9938269B2, “Inhibitor compounds of phosphodiesterase type 10A” (ABBVIE INC., priority 2011, dated 2018).
